Results from PMC9964023 (Marine Drugs, 2023).
Entries after “also recorded” stand apart in the source; their conditions may differ. Bridge positions count the residues as written; N and C are the ends. Peptide text beside a SMILES is read from it.

Experiments:
Assay in all cases: biochemical
[1] = target: T1, norepinephrine transporter (NET) (Rattus norvegicus, UniProt Q63380); type: biochemical
T1 construct: brains were processed to yield synaptosomes as previously described; from tissue; host or cells: rat whole brain minus caudate and cerebellum, synaptosomes
T1 sequence (Q63380 1-617): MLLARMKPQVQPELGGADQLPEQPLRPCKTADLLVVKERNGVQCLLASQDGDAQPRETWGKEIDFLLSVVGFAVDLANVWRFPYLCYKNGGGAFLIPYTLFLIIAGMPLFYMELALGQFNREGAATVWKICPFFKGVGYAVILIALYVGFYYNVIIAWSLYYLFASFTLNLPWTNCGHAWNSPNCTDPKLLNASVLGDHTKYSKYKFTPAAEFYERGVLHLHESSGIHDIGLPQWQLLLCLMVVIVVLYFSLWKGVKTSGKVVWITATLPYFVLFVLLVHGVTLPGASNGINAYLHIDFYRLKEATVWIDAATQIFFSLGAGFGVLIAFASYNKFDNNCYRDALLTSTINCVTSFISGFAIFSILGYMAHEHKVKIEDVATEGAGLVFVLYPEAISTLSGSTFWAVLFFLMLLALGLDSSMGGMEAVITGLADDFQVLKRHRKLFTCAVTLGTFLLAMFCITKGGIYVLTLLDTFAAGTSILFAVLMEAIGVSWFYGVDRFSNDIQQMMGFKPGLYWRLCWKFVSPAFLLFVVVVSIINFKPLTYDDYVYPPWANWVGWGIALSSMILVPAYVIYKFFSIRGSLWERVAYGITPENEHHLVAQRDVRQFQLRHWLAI

[2] = target: T2, serotonin transporter (SERT) (Rattus norvegicus, UniProt P31652)
T2 construct: brains were processed to yield synaptosomes as previously described; from tissue; host or cells: rat whole brain minus caudate and cerebellum, synaptosomes
T2 sequence (P31652 whole entry): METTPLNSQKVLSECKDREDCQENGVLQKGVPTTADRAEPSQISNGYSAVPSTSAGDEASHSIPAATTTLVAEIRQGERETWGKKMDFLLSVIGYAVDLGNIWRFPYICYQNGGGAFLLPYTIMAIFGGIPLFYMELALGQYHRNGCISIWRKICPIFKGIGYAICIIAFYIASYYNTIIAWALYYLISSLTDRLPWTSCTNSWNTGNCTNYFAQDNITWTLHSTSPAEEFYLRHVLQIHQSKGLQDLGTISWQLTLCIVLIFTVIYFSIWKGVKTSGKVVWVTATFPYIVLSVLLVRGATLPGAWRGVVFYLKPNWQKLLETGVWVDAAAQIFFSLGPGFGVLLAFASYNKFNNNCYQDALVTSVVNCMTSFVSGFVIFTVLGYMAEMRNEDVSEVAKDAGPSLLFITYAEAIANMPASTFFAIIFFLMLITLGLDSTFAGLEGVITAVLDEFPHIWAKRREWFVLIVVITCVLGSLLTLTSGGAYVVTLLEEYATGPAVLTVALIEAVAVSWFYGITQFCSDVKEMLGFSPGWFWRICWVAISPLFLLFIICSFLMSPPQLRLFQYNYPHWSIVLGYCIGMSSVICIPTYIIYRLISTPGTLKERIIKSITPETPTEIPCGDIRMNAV

[3] = target: T3, dopamine transporter (DAT) (Rattus norvegicus, UniProt P23977)
T3 construct: brains were processed to yield synaptosomes as previously described; from tissue; host or cells: rat caudate synaptosomes
T3 sequence (P23977 whole entry): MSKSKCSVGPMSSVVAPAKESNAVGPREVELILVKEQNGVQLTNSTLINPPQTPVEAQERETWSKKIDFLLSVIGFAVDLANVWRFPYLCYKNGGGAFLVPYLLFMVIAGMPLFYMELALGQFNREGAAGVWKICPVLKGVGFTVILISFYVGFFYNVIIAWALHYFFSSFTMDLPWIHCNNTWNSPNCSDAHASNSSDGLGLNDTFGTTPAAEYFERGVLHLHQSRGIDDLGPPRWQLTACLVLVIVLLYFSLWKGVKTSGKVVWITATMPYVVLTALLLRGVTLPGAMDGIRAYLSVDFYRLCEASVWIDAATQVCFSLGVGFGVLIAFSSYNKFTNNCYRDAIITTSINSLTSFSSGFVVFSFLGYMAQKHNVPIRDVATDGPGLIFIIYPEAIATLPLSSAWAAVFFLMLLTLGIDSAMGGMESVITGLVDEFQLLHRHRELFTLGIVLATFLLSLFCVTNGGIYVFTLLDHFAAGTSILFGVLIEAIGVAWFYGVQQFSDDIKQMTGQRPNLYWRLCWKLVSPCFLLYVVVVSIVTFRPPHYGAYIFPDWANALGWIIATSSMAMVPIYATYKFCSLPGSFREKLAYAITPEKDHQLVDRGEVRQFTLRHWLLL

CSCC[C@@H]1NC(=O)[C@H](CCCNC(=N)N)NC(=O)[C@H](Cc2ccc(O)cc2)NC(=O)CNC(=O)[C@@H]2CSSC[C@@H](C(N)=O)NC(=O)[C@@H]3CCCN3C(=O)[C@H](C(C)C)NC(=O)[C@H](CSSC[C@H](NC(=O)[C@@H](NC(=O)[C@@H](N)CO)[C@@H](C)O)C(=O)N2)NC1=O [PnID A] (H-STCCGYRMCVPC-NH2; disulfide 3-9, 4-12)
IC50 [1]: > 100 µM
activity at NET relative to ribbon isomer (in words) [1]: more than ten times less activity; also recorded: much less active in inhibiting the rat NET
IC50 [2]: > 100 µM
IC50 [3]: > 100 µM

CSCC[C@@H]1NC(=O)[C@H](CCCNC(=N)N)NC(=O)[C@H](Cc2ccc(O)cc2)NC(=O)CNC(=O)[C@@H]2CSSC[C@H](NC1=O)C(=O)N[C@@H](C(C)C)C(=O)N1CCC[C@H]1C(=O)N[C@H](C(N)=O)CSSC[C@H](NC(=O)[C@@H](NC(=O)[C@@H](N)CO)[C@@H](C)O)C(=O)N2 [PnID B] (H-STCCGYRMCVPC-NH2; disulfide 3-12, 4-9)
IC50 [1]: 10 µM
